Test results reported in ChEMBL document CHEMBL2311446, “Hybrid fluorescent conjugates of COX-2 inhibitors: search for a COX-2 isozyme imaging cancer biomarker” (Bioorg Med Chem Lett, 2013).

Tested on: not listed separately
Experiment: Drug uptake in human HCA-7 cells overexpressing COX2 assessed as fluorescence at 10 uM after 1 hr by confocal laser scanning microscopic analysis
Assay type: ADME, cell-based
Details: hca-7, 1 h; call rule not given here

Drug uptake | Compound
Not Active | CCN(CC)c1ccc2c(-c3ccccc3C(=O)O)c3ccc(=[N+](CC)CC)cc-3oc2c1 [RHODAMINE B]

Molecular target: T1, Prostaglandin G/H synthase 1 (Ovis aries, UniProt P05979)
T1 sequence (P05979 whole entry): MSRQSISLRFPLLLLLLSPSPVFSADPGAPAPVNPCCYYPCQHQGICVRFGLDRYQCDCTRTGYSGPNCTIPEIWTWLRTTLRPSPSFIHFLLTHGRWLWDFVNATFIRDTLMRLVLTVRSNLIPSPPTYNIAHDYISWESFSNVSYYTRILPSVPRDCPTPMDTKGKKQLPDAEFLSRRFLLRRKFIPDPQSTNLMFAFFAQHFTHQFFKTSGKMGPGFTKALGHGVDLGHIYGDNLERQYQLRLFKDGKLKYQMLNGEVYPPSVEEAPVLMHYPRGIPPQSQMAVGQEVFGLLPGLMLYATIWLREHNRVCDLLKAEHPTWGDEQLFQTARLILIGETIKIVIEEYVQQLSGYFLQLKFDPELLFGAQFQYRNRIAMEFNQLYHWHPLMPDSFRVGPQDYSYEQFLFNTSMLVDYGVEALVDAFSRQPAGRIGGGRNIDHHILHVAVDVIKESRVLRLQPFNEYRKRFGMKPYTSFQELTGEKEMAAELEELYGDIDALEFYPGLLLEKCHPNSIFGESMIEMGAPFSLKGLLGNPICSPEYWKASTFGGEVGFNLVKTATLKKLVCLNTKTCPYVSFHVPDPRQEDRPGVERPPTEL
Experiment: Inhibition of ovine COX1
Details: not given

IC50 [µM] | Compound
> 100 | CC(C)Cc1ccc(C(C)C(=O)OCCNS(=O)(=O)c2cccc3c(N(C)C)cccc23)cc1 (stereo unspecified)
74.1 | CC(C)Cc1ccc(C(C)C(=O)OCCn2c3ccccc3c(=O)c3ccccc32)cc1 (stereo unspecified)
30.3 | COc1ccc2cc([C@H](C)C(=O)OCCn3c4ccccc4c(=O)c4ccccc43)ccc2c1
39.4 | CC(=O)Oc1ccccc1C(=O)OCCn1c2ccccc2c(=O)c2ccccc21
88.1 | O=c1c2ccccc2n(CCOS(=O)(=O)c2ccc(C(F)(F)F)cc2)c2ccccc12
51.5 | CC(C)Cc1ccc(C(C)C(=O)n2c3ccccc3c(=O)c3ccccc32)cc1 (stereo unspecified)
18 | COc1ccc2cc([C@H](C)C(=O)n3c4ccccc4c(=O)c4ccccc43)ccc2c1
> 100 | CN(C)c1cccc2c(S(=O)(=O)NCCNS(=O)(=O)c3ccc(C4=C(c5ccc(Cl)cc5)C(=O)OC4)cc3)cccc12
> 100 | Cc1ccc(-c2cc(C(F)(F)F)nn2-c2ccc(S(=O)(=O)NCCNS(=O)(=O)c3cccc4c(N(C)C)cccc34)cc2)cc1
> 100 | CCN(CC)c1ccc2c(c1)Oc1cc(N(CC)CC)ccc1C21c2ccccc2C(=O)N1CCNS(=O)(=O)c1ccc(-n2nc(C(F)(F)F)cc2-c2ccc(C)cc2)cc1
